From PubChem BioAssay (NCI)
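GI50: concentration for 50% inhibition of growth. TGI denotes the concentration required for complete inhibition of growth.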

Key:
Assay in all cases: NCI anticancer screen, dose series, 384-well format
UACC-257 melanoma = test system: UACC-257 melanoma
HCC-2998 colon = test system: HCC-2998 colon
ACHN renal = test system: ACHN renal
SF-268 CNS = test system: SF-268 CNS
DU-145 prostate = test system: DU-145 prostate
TK-10 renal = test system: TK-10 renal
HCT-116 colon = test system: HCT-116 colon
UACC-62 melanoma = test system: UACC-62 melanoma
SK-MEL-28 melanoma = test system: SK-MEL-28 melanoma
K-562 leukemia = test system: K-562 leukemia
CCRF-CEM leukemia = test system: CCRF-CEM leukemia
A549 NSCLC = test system: A549 NSCLC
OVCAR-8 ovarian = test system: OVCAR-8 ovarian
SN12C renal = test system: SN12C renal
HOP-92 NSCLC = test system: HOP-92 NSCLC
NCI-H226 lung = test system: NCI-H226 lung
KM12 colon = test system: KM12 colon
NCI/ADR-RES ovarian = test system: NCI/ADR-RES ovarian
MDA-MB-468 breast = test system: MDA-MB-468 breast
SF-539 CNS = test system: SF-539 CNS
MALME-3M melanoma = test system: MALME-3M melanoma
HCT-15 colon = test system: HCT-15 colon
A498 renal = test system: A498 renal
HT29 colon = test system: HT29 colon
OVCAR-3 ovarian = test system: OVCAR-3 ovarian
UO-31 renal = test system: UO-31 renal
786-0 renal = test system: 786-0 renal
PC-3 prostate = test system: PC-3 prostate
MCF7 breast = test system: MCF7 breast
SNB-75 CNS = test system: SNB-75 CNS
RPMI-8226 leukemia = test system: RPMI-8226 leukemia
BT-549 breast = test system: BT-549 breast
MDA-MB-231 breast = test system: MDA-MB-231 breast
SF-295 CNS = test system: SF-295 CNS
NCI-H23 lung = test system: NCI-H23 lung
MDA-MB-435 melanoma = test system: MDA-MB-435 melanoma
COLO 205 colon = test system: COLO 205 colon
HL-60(TB) leukemia = test system: HL-60(TB) leukemia
SR leukemia = test system: SR leukemia
SNB-19 CNS = test system: SNB-19 CNS
RXF 393 renal = test system: RXF 393 renal
NCI-H322M lung = test system: NCI-H322M lung
EKVX NSCLC = test system: EKVX NSCLC
M14 melanoma = test system: M14 melanoma
SK-MEL-5 melanoma = test system: SK-MEL-5 melanoma
MOLT-4 leukemia = test system: MOLT-4 leukemia
HOP-62 NSCLC = test system: HOP-62 NSCLC
SK-OV-3 ovarian = test system: SK-OV-3 ovarian
OVCAR-4 ovarian = test system: OVCAR-4 ovarian
CAKI-1 renal = test system: CAKI-1 renal
NCI-H522 lung = test system: NCI-H522 lung
IGROV1 ovarian = test system: IGROV1 ovarian
U251 glioblastoma = test system: U251 glioblastoma
NCI-H460 NSCLC = test system: NCI-H460 NSCLC
SW-620 colon = test system: SW-620 colon
T-47D breast = test system: T-47D breast
LOX IMVI melanoma = test system: LOX IMVI melanoma
HS 578T breast = test system: HS 578T breast

Work on `CN1CCN(c2ccc(Nc3ncc4cc(C#N)c(=O)n(C5CCCC5)c4n3)cc2)CC1` yielded a GI50 (UACC-257 melanoma) of 10.8 µM, a TGI (UACC-257 melanoma) of 32.1 µM and a GI50 (HCC-2998 colon) of 1.8 µM. The TGI (HCC-2998 colon) was 18.5 µM, the GI50 (ACHN renal) was 0.521 µM and the TGI (ACHN renal) was 22.9 µM. The GI50 (SF-268 CNS) was 1.65 µM, the TGI (SF-268 CNS) was 12.6 µM and the GI50 (DU-145 prostate) was 1.56 µM. It also gave a TGI (DU-145 prostate) of 25.8 µM, a GI50 (TK-10 renal) of 1.32 µM and a TGI (TK-10 renal) of 12.4 µM. It also gave a GI50 (HCT-116 colon) of 0.372 µM, a TGI (HCT-116 colon) of 11.1 µM and a GI50 (UACC-62 melanoma) of 1.4 µM. For the same compound, the TGI (UACC-62 melanoma) was 23.6 µM, the GI50 (SK-MEL-28 melanoma) was 8.46 µM and the TGI (SK-MEL-28 melanoma) was 72.1 µM. For the same compound, the GI50 (K-562 leukemia) was 0.462 µM, the TGI (K-562 leukemia) was > 100 µM and the GI50 (CCRF-CEM leukemia) was 0.365 µM. It also gave a TGI (CCRF-CEM leukemia) of 1.72 µM, a GI50 (A549 NSCLC) of 1.04 µM and a TGI (A549 NSCLC) of 16.1 µM. The GI50 (OVCAR-8 ovarian) was 4.65 µM, the TGI (OVCAR-8 ovarian) was 37.2 µM and the GI50 (SN12C renal) was 0.271 µM. For the same compound, the TGI (SN12C renal) was 4.43 µM, the GI50 (HOP-92 NSCLC) was 2.03 µM and the TGI (HOP-92 NSCLC) was 29 µM. It also gave a GI50 (NCI-H226 lung) of 0.457 µM, a TGI (NCI-H226 lung) of 13.8 µM and a GI50 (KM12 colon) of 1.02 µM. For the same compound, the TGI (KM12 colon) was 55.5 µM, the GI50 (NCI/ADR-RES ovarian) was 8.59 µM and the TGI (NCI/ADR-RES ovarian) was 34.9 µM. It also gave a GI50 (MDA-MB-468 breast) of 1.89 µM, a TGI (MDA-MB-468 breast) of 4.31 µM and a GI50 (SF-539 CNS) of 2.23 µM. It also gave a TGI (SF-539 CNS) of 13.2 µM, a GI50 (MALME-3M melanoma) of 0.535 µM and a TGI (MALME-3M melanoma) of 92.9 µM. For the same compound, the GI50 (HCT-15 colon) was 0.837 µM, the TGI (HCT-15 colon) was 15.4 µM and the GI50 (A498 renal) was 1.09 µM. The TGI (A498 renal) was 7.46 µM, the GI50 (HT29 colon) was 1.18 µM and the TGI (HT29 colon) was > 100 µM. The GI50 (OVCAR-3 ovarian) was 3.1 µM, the TGI (OVCAR-3 ovarian) was 14.4 µM and the GI50 (UO-31 renal) was 0.551 µM. For the same compound, the TGI (UO-31 renal) was 14.8 µM, the GI50 ([…]-0 renal) was 0.755 µM and the TGI (786-0 renal) was 28.2 µM. For the same compound, the GI50 (PC-3 prostate) was 0.819 µM, the TGI (PC-3 prostate) was 46.5 µM and the GI50 (MCF7 breast) was 0.299 µM. The TGI (MCF7 breast) was 3.68 µM, the GI50 (SNB-75 CNS) was 1.8 µM and the TGI (SNB-75 CNS) was 10.9 µM. The GI50 (RPMI-8226 leukemia) was 0.0798 µM, the TGI (RPMI-8226 leukemia) was 0.818 µM and the GI50 (BT-549 breast) was 1.75 µM. For the same compound, the TGI (BT-549 breast) was 12.2 µM, the GI50 (MDA-MB-231 breast) was 0.718 µM and the TGI (MDA-MB-231 breast) was > 100 µM. It also gave a GI50 (SF-295 CNS) of 0.632 µM, a TGI (SF-295 CNS) of 19.8 µM and a GI50 (NCI-H23 lung) of 1.23 µM. It also gave a TGI (NCI-H23 lung) of 18.7 µM, a GI50 (MDA-MB-435 melanoma) of 3.37 µM and a TGI (MDA-MB-435 melanoma) of 66.9 µM. For the same compound, the GI50 (COLO 205 colon) was 0.981 µM, the TGI (COLO 205 colon) was > 100 µM and the GI50 (HL-60(TB) leukemia) was 0.0949 µM. The TGI (HL-60(TB) leukemia) was 1.38 µM, the GI50 (SR leukemia) was 0.498 µM and the TGI (SR leukemia) was 1 µM. For the same compound, the GI50 (SNB-19 CNS) was 3.17 µM, the TGI (SNB-19 CNS) was > 100 µM and the GI50 (RXF 393 renal) was 0.727 µM. It also gave a TGI (RXF 393 renal) of 3.14 µM, a GI50 (NCI-H322M lung) of 2.22 µM and a TGI (NCI-H322M lung) of 47.8 µM. The GI50 (EKVX NSCLC) was 6.55 µM, the TGI (EKVX NSCLC) was 27.9 µM and the GI50 (M14 melanoma) was 1.07 µM. The TGI (M14 melanoma) was > 100 µM, the GI50 (SK-MEL-5 melanoma) was 10.9 µM and the TGI (SK-MEL-5 melanoma) was 26.6 µM. For the same compound, the GI50 (MOLT-4 leukemia) was 0.141 µM, the TGI (MOLT-4 leukemia) was 0.532 µM and the GI50 (HOP-62 NSCLC) was 2.43 µM. For the same compound, the TGI (HOP-62 NSCLC) was 14.6 µM, the GI50 (SK-OV-3 ovarian) was 1.04 µM and the TGI (SK-OV-3 ovarian) was 29.9 µM. For the same compound, the GI50 (OVCAR-4 ovarian) was 27.1 µM, the TGI (OVCAR-4 ovarian) was > 100 µM and the GI50 (CAKI-1 renal) was 0.259 µM. For the same compound, the TGI (CAKI-1 renal) was 3.09 µM, the GI50 (NCI-H522 lung) was 1.2 µM and the TGI (NCI-H522 lung) was 18.9 µM. For the same compound, the GI50 (IGROV1 ovarian) was 0.674 µM, the TGI (IGROV1 ovarian) was 11 µM and the GI50 (U251 glioblastoma) was 1.6 µM. It also gave a TGI (U251 glioblastoma) of 22.4 µM, a GI50 (NCI-H460 NSCLC) of 0.271 µM and a TGI (NCI-H460 NSCLC) of 11 µM. It also gave a GI50 (SW-620 colon) of 0.728 µM, a TGI (SW-620 colon) of 28 µM and a GI50 (T-47D breast) of 7.4 µM. For the same compound, the TGI (T-47D breast) was > 100 µM, the GI50 (LOX IMVI melanoma) was 0.799 µM and the TGI (LOX IMVI melanoma) was 13.9 µM. For the same compound, the GI50 (HS 578T breast) was 1.42 µM and the TGI (HS 578T breast) was 3.95 µM.
